# Tested on: Erysiphe cichoracearum
# Experiment: Powdery Mildew of Cucumber (ERYSCI) disease control
# Format: in vivo
# Conditions: 100 ppm, 1 Day Protectant
# Protocol: Technical grades of materials were dissolved in acetone, which were then mixed with nine volumes of water containing 110 ppm Triton X-100. The fungicide solutions were applied onto wheat seedlings using an automated booth sprayer to run-off. All sprayed plants were allowed to air dry prior to further handling. All fungicides were evaluated using the aforementioned method for their activity vs. all target diseases. Wheat leaf blotch and brown rust activity were also evaluated using track spray applications, in which case the fungicides were formulated as EC formulations, containing 0.1% Trycol 5941 in the spray solutions. Wheat plants (variety Yuma) were grown from seed in a greenhouse in 50% mineral soil/50% soil-less Metro mix until the first leaf was fully emerged, with 7-10 seedlings per pot. These plants were inoculated with an aqueous spore suspension of Septoria tritici either prior to or after fungicide treatments. After inoculation the plants were kept in 100% relative humidity (one day in a dark dew chamber followed by two to three days in a lighted dew chamber at 20° C.) to permit spores to germinate and infect the leaf. The plants were then transferred to a greenhouse set at 20° C. for disease to develop. When disease symptoms were fully expressed on the 1st leaves of untreated plants, infection levels were assessed on a scale of 0 to 100 percent disease severity. Percent disease control was calculated using the ratio of disease severity on treated plants relative to untreated plants. Cucumber seedlings (variety Bush Pickle) were grown in soil-less Metro mix, with one plant per pot, and used in the test when 12 to 14 days old. Plants were inoculated with a spore suspension 24 hr following fungicide treatments. After inoculation the plants remained in the greenhouse set at 20° C. until disease was fully expressed. Fungicide formulation, application and disease assessment on the sprayed leaves followed the procedures as described in the Example A.
row,Compound,Disease Control ERYSCI 1 DP
1,COc1ccnc(C(=O)N[C@H]2CCC[C@H](Cc3ccc(F)cc3)[C@@H](OCC3CC3)[C@H](C)OC2=O)c1OCOC(C)=O [Compound F98],A (80-100)

# Same assay, conditions: Golovinomyces cichoracearum, topical, 24 h, 1 Day Protectant, read-out: Disease Control ERYSCI 1 DP
row,Compound,pest or weed control at 100 ppm [%]
1,COc1ccnc(C(=O)N[C@H]2CCC[C@H](Cc3ccc(F)cc3F)[C@@H](OC(=O)c3ccco3)[C@H](C)OC2=O)c1OCOC(C)=O [Compound F144],0 to 80
2,CCOCC(=O)OCOc1c(OC)ccnc1C(=O)N[C@H]1CCC[C@H](CCOC)[C@@H](Oc2ccccc2)[C@H](C)OC1=O [Compound F183],0 to 80
3,CCCO[C@@H]1[C@@H](Cc2ccccc2)CCC[C@H](NC(=O)c2nccc(OC)c2OCOC(C)=O)C(=O)O[C@H]1C [Compound F109],80 to 100
4,CCO[C@@H]1[C@@H](Cc2ccccc2)CCC[C@H](NC(=O)c2nccc(OC)c2OC(C)=O)C(=O)O[C@H]1C [Compound F87],0 to 80
5,COc1ccnc(C(=O)N[C@H]2CCC[C@H](CC3CCCCC3)[C@@H](OCC(C)C)[C@H](C)OC2=O)c1OCOC(C)=O [Compound F113],80 to 100
6,CCOCC(=O)OCOc1c(OC)ccnc1C(=O)N[C@H]1CCC[C@H](Cc2ccccc2)[C@@H](OCC(C)C)[C@H](C)OC1=O [Compound F172],80 to 100
7,COc1ccnc(C(=O)N[C@H]2CCC[C@H](Cc3ccc(C)cc3)[C@@H](OCC(C)C)[C@H](C)OC2=O)c1OCOC(C)=O [Compound F126],80 to 100
8,CCCO[C@@H]1[C@@H](Cc2ccccc2)CCC[C@H](NC(=O)c2nccc(OC)c2OC(=O)CCOC)C(=O)O[C@H]1C [Compound F198],80 to 100
9,COc1ccnc(C(=O)N[C@H]2CCC[C@H](Cc3ccccc3)[C@@H](OCC(C)C)[C@H](C)OC2=O)c1OC(C)=O [Compound F70],80 to 100
10,COCC[C@H]1CCC[C@H](NC(=O)c2nccc(OC)c2OC(C)=O)C(=O)O[C@@H](C)[C@@H]1Oc1ccccc1 [Compound F78],0 to 80
11,CCOCC(=O)OCOc1c(OC)ccnc1C(=O)N[C@H]1CCC[C@H](CC2CCCCC2)[C@@H](OCC(C)C)[C@H](C)OC1=O [Compound F175],0 to 80
12,CCOCC(=O)OCOc1c(OC)ccnc1C(=O)N[C@H]1CCC[C@H](Cc2ccccc2)[C@@H](OCC2CC2)[C@H](C)OC1=O [Compound F173],80 to 100
13,CCCO[C@@H]1[C@@H](CCC(C)C)CCC[C@H](NC(=O)c2nccc(OC)c2OC(C)=O)C(=O)O[C@H]1C [Compound F64],80 to 100
14,"COc1ccnc(C(=O)N[C@H]2CCC[C@H](CCF)[C@@H](OCC(C)C)[C@H](C)OC2=O)c1OCOC(C)=O [Compound F128, ((2-(((3S,7R,8R,9S)-7-(2-fluoroethyl)-8-isobutoxy-9-methyl-2-oxooxonan-3-yl)carbamoyl)-4-methoxypyridin-3-yl)oxy)methyl acetate]",0 to 80
15,COc1ccnc(C(=O)N[C@H]2CCC[C@H](Cc3ccccc3)[C@@H](OCC3CC3)[C@H](C)OC2=O)c1OCOC(=O)C(C)C [Compound F152],80 to 100
16,COc1ccnc(C(=O)N[C@H]2CCC[C@H](Cc3ccccc3)[C@@H](OCC(C)C)[C@H](C)OC2=O)c1OCOC(=O)C(C)C [Compound F151],80 to 100
17,COc1ccnc(C(=O)N[C@H]2CCC[C@H](Cc3ccc(F)cc3)[C@@H](OCC3CC3)[C@H](C)OC2=O)c1OC(C)=O [Compound F67],0 to 80

row,Compound,pest or weed control at 100 ppm [%]
1,CCCO[C@@H]1[C@@H](CCC(C)C)CCC[C@H](NC(=O)c2nccc(OC)c2OCOC(=O)COCC)C(=O)O[C@H]1C [Compound F161],80 to 100
2,CCOCC(=O)OCOc1c(OC)ccnc1C(=O)N[C@H]1CCC[C@H](CCF)[C@@H](OCC(C)C)[C@H](C)OC1=O [Compound F181],0 to 80
3,CCCO[C@@H]1[C@@H](Cc2ccccc2)CCC[C@H](NC(=O)c2nccc(OC)c2OC(C)=O)C(=O)O[C@H]1C [Compound F88],80 to 100
4,CCCO[C@@H]1[C@@H](Cc2ccc(F)cc2)CCC[C@H](NC(=O)c2nccc(OC)c2OCOC(C)=O)C(=O)O[C@H]1C [Compound F101],80 to 100
5,CC[C@H]1CCC[C@H](NC(=O)c2nccc(OC)c2OC(C)=O)C(=O)O[C@@H](C)[C@@H]1Oc1ccccc1 [Compound F81],0 to 80
6,COc1ccnc(C(=O)N[C@H]2CCC[C@H](CC3CCCC3)[C@@H](OCC3CC3)[C@H](C)OC2=O)c1OCOC(C)=O [Compound F117],80 to 100
7,COc1ccnc(C(=O)N[C@H]2CCC[C@H](Cc3ccccc3)[C@@H](OCC3CC3)[C@H](C)OC2=O)c1OCOC(C)=O [Compound F107],80 to 100
8,COc1ccc(C[C@H]2CCC[C@H](NC(=O)c3nccc(OC)c3OCOC(C)=O)C(=O)O[C@@H](C)[C@@H]2OCC(C)C)cc1 [Compound F118],0 to 80
9,COc1ccnc(C(=O)N[C@H]2CCC[C@H](Cc3ccc(F)cc3)[C@@H](OCC3CC3)[C@H](C)OC2=O)c1OCOC(C)=O [Compound F96],80 to 100
10,CCCO[C@@H]1[C@@H](Cc2ccccc2)CCC[C@H](NC(=O)c2nccc(OC)c2OCOC(=O)COCC)C(=O)O[C@H]1C [Compound F174],80 to 100
11,CCOCC(=O)OCOc1c(OC)ccnc1C(=O)N[C@H]1CCC[C@H](Cc2ccc(F)cc2)[C@@H](OCC2CC2)[C@H](C)OC1=O [Compound F164],80 to 100
12,CCCO[C@@H]1[C@@H](Cc2ccc(OC)cc2)CCC[C@H](NC(=O)c2nccc(OC)c2OCOC(C)=O)C(=O)O[C@H]1C [Compound F119],80 to 100
13,COCC[C@H]1CCC[C@H](NC(=O)c2nccc(OC)c2OCOC(C)=O)C(=O)O[C@@H](C)[C@@H]1Oc1ccccc1 [Compound F130],0 to 80
14,COc1ccnc(C(=O)N[C@H]2CCC[C@H](Cc3ccc(F)cc3F)[C@@H](OCC(C)C)[C@H](C)OC2=O)c1OCOC(C)=O [Compound F145],80 to 100
15,COc1ccnc(C(=O)N[C@H]2CCC[C@H](Cc3ccccc3)[C@@H](OCC(C)C)[C@H](C)OC2=O)c1OCOC(C)=O [Compound F106],80 to 100
16,CCCO[C@@H]1[C@@H](Cc2ccc(F)cc2)CCC[C@H](NC(=O)c2nccc(OC)c2OCOC(=O)COCC)C(=O)O[C@H]1C [Compound F167],80 to 100
17,CCCO[C@@H]1[C@@H](CCC(C)C)CCC[C@H](NC(=O)c2nccc(OC)c2OCOC(C)=O)C(=O)O[C@H]1C [Compound F92],80 to 100

# Tested on: Blumeria graminis f. sp. tritici; Synonym: Erysiphe graminis f. sp. tritici
# Experiment: Wheat Powdery Mildew (ERYSGT) disease control
# Format: in vivo
# Conditions: 100 ppm, 1 Day Protectant
# Protocol: Technical grades of materials were dissolved in acetone, which were then mixed with nine volumes of water containing 110 ppm Triton X-100. The fungicide solutions were applied onto wheat seedlings using an automated booth sprayer to run-off. All sprayed plants were allowed to air dry prior to further handling. All fungicides were evaluated using the aforementioned method for their activity vs. all target diseases. Wheat leaf blotch and brown rust activity were also evaluated using track spray applications, in which case the fungicides were formulated as EC formulations, containing 0.1% Trycol 5941 in the spray solutions. Wheat plants (variety Yuma) were grown from seed in a greenhouse in 50% mineral soil/50% soil-less Metro mix until the first leaf was fully emerged, with 7-10 seedlings per pot. These plants were inoculated with an aqueous spore suspension of Septoria tritici either prior to or after fungicide treatments. […] When disease symptoms were fully expressed on the 1st leaves of untreated plants, infection levels were assessed on a scale of 0 to 100 percent disease severity. Percent disease control was calculated using the ratio of disease severity on treated plants relative to untreated plants. […]
row,Compound,Disease Control ERYSGT 1 DP
1,COc1ccnc(C(=O)N[C@H]2CCC[C@H](Cc3ccccc3)[C@@H](OCC(C)C)[C@H](C)OC2=O)c1OCOC(=O)C(C)C [Compound F151],A (80-100)
2,COc1ccnc(C(=O)N[C@H]2CCC[C@H](Cc3ccccc3)[C@@H](OCC(C)C)[C@H](C)OC2=O)c1OCOC(C)=O [Compound F106],A (80-100)

# Tested on: not given
# Experiment: not given
# Conditions: not given
row,melting point [°C],Compound
1,76 to 80,COc1ccnc(C(=O)N[C@H]2CCC[C@H](Cc3ccc(F)cc3F)[C@@H](OC(=O)c3ccco3)[C@H](C)OC2=O)c1OCOC(C)=O [Compound F144]
2,68 to 72,COc1ccnc(C(=O)N[C@H]2CCC[C@H](Cc3ccc(F)cc3F)[C@@H](OC(=O)c3ccco3)[C@H](C)OC2=O)c1OCOC(=O)C(C)C [Compound F157]
3,48 to 53,COc1ccnc(C(=O)N[C@H]2CCC[C@H](Cc3ccc(F)cc3F)[C@@H](OCC(C)C)[C@H](C)OC2=O)c1OCOC(C)=O [Compound F145]

row,Compound,melting point [°C]
1,COc1ccnc(C(=O)N[C@H]2CCC[C@H](Cc3ccccc3)[C@@H](OCC(C)C)[C@H](C)OC2=O)c1OCOC(=O)C(C)C [Compound F151],122 to 124
2,CCOCC(=O)OCOc1c(OC)ccnc1C(=O)N[C@H]1CCC[C@H](Cc2ccc(F)cc2F)[C@@H](OC(=O)c2ccco2)[C@H](C)OC1=O [Compound F193],70 to 75
